{"source": "patent US5705518A", "about": "“Method of activating photosensitive agents” (University of British Columbia, priority 1995, dated 1998)", "key": {"[1]": {"settings": "mouse, in vivo, iv; cited from earlier work"}, "[2]": {"settings": "human, in vivo; cited from earlier work"}, "bladder cancer": {"test_system": "bladder cancer", "settings": "human, in vivo, cited from earlier work"}, "[3]": {"test_system": "subcutaneous rat gliosarcomas", "settings": "in vivo; cited from earlier work"}, "M-1 tumor cells": {"test_system": "M-1 tumor cells", "assay": "Dose ranging study: drug dose, light dose and post injection interval, M-1 tumor-bearing mice", "assay_type": "in vivo, DBA/2 mice"}, "M-1 tumor [4]": {"test_system": "M-1 tumor", "assay": "Comparison PDT with light three hours post injection (FIG. 3), M-1 tumor mouse", "settings": "2.0 mg/kg BPD-MA, 100 J/cm^2, 4 days (FIG. 3)"}, "[5]": {"test_system": "M-1 (murine rhabdomyosarcoma) tumor", "assay": "Pilot study of shorter post injection intervals: PDT of M-1 tumor-bearing mice, light 15 min after liposomal BPD-MA", "assay_type": "in vivo, DBA/2 mice", "settings": "light 15 min post injection", "protocol": "Liposomal BPD was dried and stored frozen at -20° C. in 1 ml aliquots. The appropriate number of aliquots were thawed immediately before use and diluted with 5% dextrose in water for injection into the animals.\nMale DBA/2 mice (7-11 weeks old; Charles River Laboratories, St. Constant, Quebec, Canada) were used in these studies, unless otherwise specified. Shaving and depilation removed the hair very effectively from appropriate body surfaces. The mice were shaved and depilated with a commercially available depilator (Nair®) at least one day before being used in the experiments. Following injection the mice were kept in the dark for various lengths of time, as described below. Before and after the experiments the mice were kept in an animal facility with 12 hours of light and 12 hours of dark daily.\nAn argon pumped dye laser, whose power source was obtained from Spectra Physics (Series 2000, Mountain View, Calif.) and whose 5W argon ion pumped dye laser was obtained from Coherent (Model 599, Palo Alto, Calif.) was used to deliver a columnated beam of light having a wavelength of 690 (±3) nm. The argon laser was aimed at the skin to irradiate the tumor. The time of light exposure was varied to give different light doses, such as 50, 75 and 100 Joules/cm^2.\nDBA/2 mice (weight 22±1 g) were used in this study. […]"}, "M-1 tumor [6]": {"test_system": "M-1 tumor", "assay": "Anti-tumor efficacy BPD-MA dose-response study (FIG. 4)", "assay_type": "in vivo, mice", "settings": "2.0 mg/kg (only group of 0.5, 1.0, 1.5, 2.0 mg/kg); 150 J/cm^2; three hours post injection", "method": "FIG. 4 illustrates an anti-tumor efficacy dose-response study for BPD-MA, liposomal formulation. […] Light exposure took place three hours after injection.\nFor comparison, FIGS. 4 and 5 are provided. FIG. 4 summarizes results of a test involving the same mouse-tumor model, in which four different BPD-MA doses were given (0.5, 1.0, 1.5, and 2.0 mg/kg). Light exposure was 150 J/cm^2, administered after a post injection interval of three hours of darkness. Under this regimen, which is similar to current clinical regimens, the only group that was over 50% tumor free at 14 days was that group of mice receiving 2.0 mg/kg."}, "[7]": {"settings": "mouse, in vivo, iv, cited from earlier work"}, "M-1 tumor [8]": {"test_system": "M-1 tumor", "assay": "Light dose-response study at 690 nm (FIG. 5)", "assay_type": "in vivo, mice", "settings": "2 mg/kg BPD-MA, three hours post injection", "method": "FIG. 5 illustrates a light dose-response study at 690 nm and with a BPD-MA dose of 2 mg/kg. […] Light exposure took place three hours after the injection of 2 mg/kg BPD-MA.\nFIG. 5 summarizes results of a test involving the same mouse-tumor model, in which five different light exposures (50, 75, 100, 125 and 150 J/cm^2) were used three hours post injection with 2 mg/kg BPD-MA. Under this regimen, which is similar to current clinical regimens, 75% of the mice receiving 150 J/cm^2 and 50% of the mice receiving 125 J/cm^2 were tumor free at 14 days."}, "[9]": {"settings": "0.5 mg/kg, 50 J/cm^2, 30 min post injection, 2 mice, interim"}, "[10]": {"settings": "0.5 mg/kg, 75 J/cm^2, 15 min post injection, 2 mice, interim"}, "[11]": {"settings": "0.5 mg/kg, 100 J/cm^2, 15 min post injection, 5 mice, interim"}, "[12]": {"settings": "1.0 mg/kg, 50 J/cm^2, 15 min post injection, 4 mice, interim"}, "[13]": {"settings": "1.0 mg/kg, 50 J/cm^2, 30 min post injection, 5 mice, interim"}, "[14]": {"settings": "1.0 mg/kg, 75 J/cm^2, 15 min post injection, 5 mice, interim"}, "[15]": {"settings": "1.0 mg/kg, 100 J/cm^2, 15 min post injection, 4 mice, interim"}}, "note": "Read-outs that look alike come from different tables or passages of the source."}
{"compound": "C=Cc1c(C)c2cc3nc(cc4[nH]c(cc5nc(cc1[nH]2)C1(C)C5=CC=C(C(=O)OC)C1C(=O)OC)c(C)c4CCC(=O)O)C(CCC(=O)OC)=C3C", "note": "(stereo not drawn) [BPD-MB]", "values": [{"measurement": "Tumor-skin ratios", "setting": "[1]", "result": "favorable"}]}
{"compound": "porfimer sodium", "values": [{"measurement": "duration of photosensitivity (patient warning)", "setting": "[2]", "result": "six"}, {"measurement": "relationship of photosensitivity to injected drug dose", "setting": "[2]", "result": "no apparent relationship of photosensitivity to injected drug dose"}, {"measurement": "time of occurrence of skin phototoxicity", "setting": "bladder cancer; iv, 2 mg/kg", "result": "≤ 10", "unit": "days"}, {"measurement": "patients with irritative bladder symptoms", "setting": "bladder cancer", "result": "Five"}]}
{"compound": "hematoporphyrin derivative", "values": [{"measurement": "safety of direct injection compared with parenteral injection", "setting": "[3]", "result": "direct injection appeared to be safer than parenteral injection"}]}
{"compound": "benzoporphyrin derivative monoacid ring A [BPD-MA]", "values": [{"measurement": "mice that developed tumors", "setting": "M-1 tumor cells; 0.5 mg/kg BPD-MA, 50 J/cm^2, 30 minutes post injection", "result": "all mice developed tumors"}, {"measurement": "tumor free at day 7", "setting": "M-1 tumor cells; 0.5 mg/kg BPD-MA, 100 J/cm^2, 15 minutes post injection, day 7, five mice", "result": "all were tumor free at day 7"}, {"measurement": "mice that developed tumors by day 14", "setting": "M-1 tumor cells; 0.5 mg/kg BPD-MA, 100 J/cm^2, 15 minutes post injection, day 14", "result": "Three of five mice"}, {"measurement": "# Tumor-Free, Day 7", "setting": "M-1 tumor cells; 0.5 mg/kg, 50 J/cm^2, 1 min post injection, 3 mice, interim", "result": 3, "unit": "mice"}, {"measurement": "# Tumor-Free, Day 7", "setting": "M-1 tumor cells; 0.5 mg/kg, 50 J/cm^2, 15 min post injection, 2 mice, interim", "result": 2, "unit": "mice"}, {"measurement": "# Tumor-Free, Day 7", "setting": "M-1 tumor cells; [9]", "result": 0, "unit": "mice"}, {"measurement": "# Tumor-Free, Day 14", "setting": "M-1 tumor cells; [9]", "result": 0, "unit": "mice"}, {"measurement": "# Tumor-Free, Day 7 column (observations on Day 2 post exposure)", "setting": "M-1 tumor cells; 0.5 mg/kg, 75 J/cm^2, 1 min post injection, 2 mice, observed Day 2, interim", "result": 2, "unit": "mice"}, {"measurement": "# Tumor-Free, Day 7", "setting": "M-1 tumor cells; [10]", "result": 2, "unit": "mice"}, {"measurement": "# Tumor-Free, Day 14", "setting": "M-1 tumor cells; [10]", "result": 2, "unit": "mice"}, {"measurement": "# Tumor-Free, Day 7", "setting": "M-1 tumor cells; 0.5 mg/kg, 100 J/cm^2, 1 min post injection, 3 mice, interim", "result": 3, "unit": "mice"}, {"measurement": "# Tumor-Free, Day 7", "setting": "M-1 tumor cells; [11]", "result": 5, "unit": "mice"}, {"measurement": "# Tumor-Free, Day 14", "setting": "M-1 tumor cells; [11]", "result": 2, "unit": "mice"}, {"measurement": "# Tumor-Free, Day 7", "setting": "M-1 tumor cells; 0.5 mg/kg, 100 J/cm^2, 30 min post injection, 2 mice, interim", "result": 2, "unit": "mice"}, {"measurement": "# Tumor-Free, Day 7", "setting": "M-1 tumor cells; 1.0 mg/kg, 50 J/cm^2, 1 min post injection, 4 mice, interim", "result": 4, "unit": "mice"}, {"measurement": "# Tumor-Free, Day 7", "setting": "M-1 tumor cells; [12]", "result": 4, "unit": "mice"}, {"measurement": "# Tumor-Free, Day 14", "setting": "M-1 tumor cells; [12]", "result": 4, "unit": "mice"}, {"measurement": "# Tumor-Free, Day 7", "setting": "M-1 tumor cells; [13]", "result": 4, "unit": "mice"}, {"measurement": "# Tumor-Free, Day 14", "setting": "M-1 tumor cells; [13]", "result": 4, "unit": "mice"}, {"measurement": "# Tumor-Free, Day 7", "setting": "M-1 tumor cells; [14]", "result": 5, "unit": "mice"}, {"measurement": "# Tumor-Free, Day 14", "setting": "M-1 tumor cells; [14]", "result": 4, "unit": "mice"}, {"measurement": "# Tumor-Free, Day 7", "setting": "M-1 tumor cells; 1.0 mg/kg, 75 J/cm^2, 30 min post injection, 5 mice, interim", "result": 4, "unit": "mice"}, {"measurement": "# Tumor-Free, Day 7", "setting": "M-1 tumor cells; [15]", "result": 4, "unit": "mice"}, {"measurement": "# Tumor-Free, Day 14", "setting": "M-1 tumor cells; [15]", "result": 4, "unit": "mice"}, {"measurement": "tumor free, animals followed to day 14", "setting": "M-1 tumor cells; all regimens of Table 1, day 14, interim", "result": "most are tumor free"}, {"measurement": "survival of mouse", "setting": "M-1 tumor [4]", "result": "alive"}, {"measurement": "tumor eradication", "setting": "M-1 tumor [4]", "result": "the tumor was eradicated"}, {"measurement": "tumor palpability", "setting": "M-1 tumor [4]", "result": "The tumor was not palpable"}, {"measurement": "survival of mouse", "setting": "[5]; 0.5 mg/kg BPD-MA, 75 J/cm^2, 24 hours (FIG. 2)", "result": "alive"}, {"measurement": "survival of mouse", "setting": "[5]; 1 mg/kg BPD-MA, 100 J/cm^2, 48 hours (FIG. 1)", "result": "alive"}, {"measurement": "tumor free at 14 days", "setting": "M-1 tumor [6]", "result": "over 50%"}, {"measurement": "BPD-MA in the tumor that was active", "setting": "[7]; 3 h", "result": 100, "unit": "%"}, {"measurement": "BPD-MA in the tumor that was active", "setting": "[7]; 24 h", "result": 39, "unit": "%"}, {"measurement": "degradation in livers and kidneys compared with tumors", "setting": "[7]", "result": "Both livers and kidneys degraded BPD-MA more quickly than did the tumors"}, {"measurement": "tumor free at 14 days", "setting": "M-1 tumor [8]; 125 J/cm^2", "result": 50, "unit": "%"}, {"measurement": "tumor free at 14 days", "setting": "M-1 tumor [8]; 150 J/cm^2", "result": 75, "unit": "%"}]}
